Consider four molecules from patent US20250312320A1, “METHOD AND TREATMENT FOR OSTEOARTHRITIS AND DISEASES OF CHONDROCYTE HYPERTROPHY” (The Royal Veterinary College, priority 2022, published 2025).

The subject of this experiment is ATDC5 micromass. Kind of experiment: Dose response of CDK8 inhibitors on ATDC5 micromass (alizarin red / alcian blue). Format: cell-based, mouse. The note with it: day 14. The method, then: In brief, 2 μl micromasses were seeded in a 96-well plate and cultured as previous in the presence of BI1347 and additional CDK8i compounds namely BRD6989, AS2863619, SEL120-34A, MSC2530818 and CCT251545. Compound concentrations were titrated 10-fold from 10 μM down to 0.1 nM. On day 14 micromasses were fixed, stained and subsequently leached to allow for dose response analysis to be conducted.
In brief, 2 μl micromasses were seeded on a 96-well plate and cultured as previous in the presence of BI1347 and additional Mediator kinase inhibitor compounds namely BRD6989, AS2863619, SEL120-34A, MSC2530818 and CCT251545. Compound concentrations were titrated 10-fold from 10 μM down to 0.1 nM. On day 14 micromasses were fixed, stained and subsequently leached to allow for dose response analysis to be conducted.

Regarding `Cc1nc2ccc(-n3c(-c4nonc4N)nc4cnccc43)cc2[nH]1.Cl.Cl` [AS2863619], for the setting “highest concentration of 10 μM”, the “alcian blue staining (GAG deposition)” value was “modestly reduced”.
In the case of `CC1CCc2nc(N)c(C#N)c(-c3cccnc3)c2C1` (stereo not shown) [BRD6989], the “alcian blue staining (GAG deposition)” value (all concentrations (10 μM down to 0.1 nM)) was “maintained”.
In the case of `Cn1cc(-c2ccc(-c3cncc(Cl)c3N3CCC4(CCNC4=O)CC3)cc2)cn1` [CCT251545], the “alcian blue staining (GAG deposition)” value (highest concentration of 10 μM) is reported as “modestly reduced”.
Take `Cc1c(Br)c(Br)c2c3c1nc(N1CCNCC1)n3CCC2.Cl` [SEL120-34A]: under “highest concentration of 10 μM”, the “alcian blue staining (GAG deposition)” value is on record as “modestly reduced”.
